Data from ChEMBL document CHEMBL3108745, “Synthesis and structure-activity relationship of 3-hydroxypyridine-2-thione-based histone deacetylase inhibitors” (J Med Chem, 2013).
Activity calls are given as the source filed them. The calls are words filed in the database; no cut-off is given here.

Experiments:
Histone deacetylase 8 = target: T1, Histone deacetylase 8 (Homo sapiens, UniProt Q9BY41); assay: Inhibition of HDAC8 catalytic domain (unknown origin) expressed in Escherichia coli BL21 (DE3) using GRKacFGC as substrate after 60 mins by SAMDI mass spectrometric analysis
T1 sequence (Q9BY41 whole entry): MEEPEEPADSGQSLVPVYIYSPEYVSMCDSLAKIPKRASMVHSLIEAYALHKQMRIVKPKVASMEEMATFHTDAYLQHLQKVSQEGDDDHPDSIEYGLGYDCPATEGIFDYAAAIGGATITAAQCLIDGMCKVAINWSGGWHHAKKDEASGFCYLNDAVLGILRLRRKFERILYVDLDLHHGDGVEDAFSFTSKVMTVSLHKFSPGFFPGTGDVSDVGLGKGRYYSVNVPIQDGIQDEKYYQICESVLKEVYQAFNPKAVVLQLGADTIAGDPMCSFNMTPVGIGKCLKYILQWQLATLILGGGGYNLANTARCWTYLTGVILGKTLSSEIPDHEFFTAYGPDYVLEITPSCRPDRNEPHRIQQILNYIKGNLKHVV

[1] = target: T2, Protein deacetylase HDAC6 (Homo sapiens, UniProt Q9UBN7); assay: Inhibition of HDAC6 (unknown origin) expressed in Escherichia coli BL21 (DE3) using GRKacYGC as substrate after 60 mins by SAMDI mass spectrometric analysis
T2 sequence (Q9UBN7 whole entry): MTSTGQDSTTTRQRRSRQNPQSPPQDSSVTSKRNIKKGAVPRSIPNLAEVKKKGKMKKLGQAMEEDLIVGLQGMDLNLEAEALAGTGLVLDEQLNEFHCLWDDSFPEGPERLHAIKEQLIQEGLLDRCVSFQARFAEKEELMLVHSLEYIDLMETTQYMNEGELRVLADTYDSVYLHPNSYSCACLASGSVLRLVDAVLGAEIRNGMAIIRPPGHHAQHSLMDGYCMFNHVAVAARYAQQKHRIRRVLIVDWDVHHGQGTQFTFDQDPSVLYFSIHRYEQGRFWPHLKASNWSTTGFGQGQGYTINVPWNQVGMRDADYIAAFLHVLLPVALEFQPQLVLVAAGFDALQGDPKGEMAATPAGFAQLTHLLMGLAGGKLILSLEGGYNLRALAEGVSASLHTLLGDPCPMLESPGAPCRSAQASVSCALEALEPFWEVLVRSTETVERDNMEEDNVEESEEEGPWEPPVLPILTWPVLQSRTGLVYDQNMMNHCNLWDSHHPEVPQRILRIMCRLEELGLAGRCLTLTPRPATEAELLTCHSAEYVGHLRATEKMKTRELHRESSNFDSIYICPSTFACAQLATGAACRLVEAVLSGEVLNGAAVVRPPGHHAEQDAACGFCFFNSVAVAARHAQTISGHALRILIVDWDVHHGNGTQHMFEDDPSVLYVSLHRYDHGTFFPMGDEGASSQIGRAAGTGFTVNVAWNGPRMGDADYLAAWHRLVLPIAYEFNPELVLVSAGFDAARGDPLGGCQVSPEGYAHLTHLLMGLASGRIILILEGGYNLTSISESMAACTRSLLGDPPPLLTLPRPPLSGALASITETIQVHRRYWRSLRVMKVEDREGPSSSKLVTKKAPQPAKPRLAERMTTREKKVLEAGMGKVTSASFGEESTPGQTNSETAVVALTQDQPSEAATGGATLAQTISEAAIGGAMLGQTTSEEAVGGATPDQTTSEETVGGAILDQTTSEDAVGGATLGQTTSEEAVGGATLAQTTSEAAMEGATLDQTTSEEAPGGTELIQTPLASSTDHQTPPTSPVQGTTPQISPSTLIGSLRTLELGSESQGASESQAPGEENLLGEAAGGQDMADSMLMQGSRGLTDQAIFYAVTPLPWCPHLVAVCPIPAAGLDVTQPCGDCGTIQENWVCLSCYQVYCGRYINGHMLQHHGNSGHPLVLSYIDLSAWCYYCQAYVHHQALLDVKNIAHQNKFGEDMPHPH

[2] = target: Histone deacetylase 1 (Homo sapiens) (UniProt Q13547); assay: Inhibition of HDAC1 (unknown origin) expressed in Escherichia coli BL21 (DE3) using GRKacFGC as substrate at 10 uM after 60 mins by SAMDI mass spectrometric analysis relative to control
Chain of Histone deacetylase 1 (Homo sapiens) (Q13547 whole entry, the tested form may be a part): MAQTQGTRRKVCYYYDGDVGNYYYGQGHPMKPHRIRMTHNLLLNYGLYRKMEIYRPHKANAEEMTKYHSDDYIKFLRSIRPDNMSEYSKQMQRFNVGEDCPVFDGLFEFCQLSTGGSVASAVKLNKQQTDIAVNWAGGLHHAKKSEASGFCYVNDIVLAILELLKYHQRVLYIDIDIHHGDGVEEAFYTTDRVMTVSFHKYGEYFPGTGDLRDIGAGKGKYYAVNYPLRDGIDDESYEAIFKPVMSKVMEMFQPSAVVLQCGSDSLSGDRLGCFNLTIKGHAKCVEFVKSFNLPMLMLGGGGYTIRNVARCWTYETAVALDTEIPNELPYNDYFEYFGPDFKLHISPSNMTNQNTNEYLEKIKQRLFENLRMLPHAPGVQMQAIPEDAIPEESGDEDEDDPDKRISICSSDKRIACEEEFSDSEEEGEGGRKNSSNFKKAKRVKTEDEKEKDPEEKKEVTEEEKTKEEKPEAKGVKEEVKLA

[3] = target: T3, Protein deacetylase HDAC6 (Homo sapiens) (UniProt Q9UBN7); assay: Inhibition of HDAC6 (unknown origin) expressed in Escherichia coli BL21 (DE3) using GRKacYGC as substrate at 10 nM to 1 mM after 60 mins by SAMDI mass spectrometric analysis
T3 sequence (whole entry): T2 sequence (Q9UBN7 whole entry)

[4] = target: Histone deacetylase 1 (Homo sapiens) (UniProt Q13547); assay: Inhibition of HDAC1 (unknown origin) expressed in Escherichia coli BL21 (DE3) using GRKacFGC as substrate at 10 nM to 1 mM after 60 mins by SAMDI mass spectrometric analysis
[5] = target: T4, Histone deacetylase 8 (Homo sapiens) (UniProt Q9BY41); assay: Inhibition of HDAC8 catalytic domain (unknown origin) expressed in Escherichia coli BL21 (DE3) using GRKacFGC as substrate at 10 nM to 1 mM after 60 mins by SAMDI mass spectrometric analysis
T4 sequence (whole entry): T1 sequence (Q9BY41 whole entry)

[6] = target: T3, Protein deacetylase HDAC6 (Homo sapiens); assay: Inhibition of HDAC6 (unknown origin) expressed in Escherichia coli BL21 (DE3) using GRKacYGC as substrate at 10 uM after 60 mins by SAMDI mass spectrometric analysis relative to control
Jurkat = assay: cells; format: functional, cell-based; settings: Homo sapiens, 72 h
Description: Cytotoxicity against human Jurkat cells assessed as growth inhibition after 72 hrs by MTS assay

[7] = Aqueous solubility of the compound […] at room temperature by UV-vis spectrophotometric analysis; format: physicochemical
LNCaP = assay: cells; settings: Homo sapiens, 72 h
Description: Cytotoxicity against androgen-dependent human LNCAP cells assessed as growth inhibition after 72 hrs by MTS assay

DU-145 = assay: cells; format: functional, cell-based; settings: Homo sapiens, DU-145, 72 h
Description: Cytotoxicity against androgen-independent human DU145 cells assessed as growth inhibition after 72 hrs by MTS assay

[8] = Cytotoxicity against human Jurkat gamma1 cells assessed as growth inhibition after 72 hrs by MTS assay; format: functional, cell-based
Vero = assay: Cytotoxicity against African green monkey Vero cells assessed as growth inhibition after 72 hrs by MTS assay; format: cell-based; settings: Chlorocebus sabaeus

SMILES	inhibition [2]	inhibition [3]	inhibition [4]	inhibition [5]	other results
Oc1cccn(CCCCn2cc(-c3ccccc3)nn2)c1=S	< 20%	–	–	–	IC50 (Histone deacetylase 8): 3.3 µM; IC50 [1]: 1.08 µM
N#Cc1ccc(-c2cn(CCCCCn3cccc(O)c3=S)nn2)cc1C(F)(F)F	< 20%	–	–	–	–
Cc1ccc(-c2cn(CCCCCn3cccc(O)c3=O)nn2)cc1	–	inactive	inactive	inactive	–
Oc1cccn(CCCn2cc(-c3ccccc3)nn2)c1=S	< 20%	–	–	–	IC50 [1]: 3.63 µM
N#Cc1ccc(-c2cn(CCCCCn3cccc(O)c3=O)nn2)cc1	–	inactive	inactive	inactive	–
O=c1c(O)cccn1CCCCn1cc(-c2ccccc2)nn1	–	inactive	inactive	inactive	–
N#Cc1ccc(-c2cn(CCCCCn3cccc(O)c3=O)nn2)cc1C(F)(F)F	–	inactive	inactive	inactive	–
O=c1c(O)cccn1CCCn1cc(-c2ccccc2)nn1	–	inactive	inactive	inactive	–
O=c1c(O)cccn1CCCCCn1cc(-c2ccccc2)nn1	–	inactive	inactive	inactive	–
O=c1c(O)cccn1CCCCCCCn1cc(-c2ccccc2)nn1	–	inactive	inactive	inactive	–
O=c1c(O)cccn1CCCCCCn1cc(-c2ccccc2)nn1	–	inactive	inactive	inactive	–
Oc1cccn(CCCCCCn2cc(-c3ccccc3)nn2)c1=S	< 20%	–	–	–	IC50 (Histone deacetylase 8): 6.75 µM; inhibition [6]: 22%
N#Cc1ccc(-c2cn(CCCCCn3cccc(O)c3=S)nn2)cc1	< 20%	–	–	–	–
Oc1cccn(CCn2cc(-c3ccccc3)nn2)c1=S	< 20%	–	–	–	inhibition [6]: 14%
N#Cc1cccc(-c2cn(CCCCCn3cccc(O)c3=O)nn2)c1	–	inactive	inactive	inactive	–
Cc1cccc(-c2cn(CCCCCn3cccc(O)c3=O)nn2)c1	–	inactive	inactive	inactive	–
Oc1cccn(Cc2cn(-c3ccccc3)nn2)c1=S	< 20%	–	–	–	inhibition [6]: 41%
Oc1cccn(CCCCCCCn2cc(-c3ccccc3)nn2)c1=S	< 20%	–	–	–	IC50 (Jurkat): 9.04 µM; solubility [7]: soluble; IC50 (Histone deacetylase 8): 1.38 µM; IC50 [1]: 0.955 µM; IC50 (LNCaP): 11 µM; IC50 (DU-145): 17.7 µM; IC50 [8]: > 20 µM
CN(C)c1ccc(-c2cn(CCCCCn3cccc(O)c3=O)nn2)cc1	–	inactive	inactive	inactive	–
CN1CCc2c(c3ccccc3n2Cc2ccc(C(=O)NO)cc2)C1 [TUBASTATIN A]	–	–	–	–	IC50 (Jurkat): 3.38 µM; IC50 (LNCaP): 10.9 µM; IC50 (Vero): > 20 µM
Cc1ccc(-c2cn(CCCCCn3cccc(O)c3=S)nn2)cc1	< 20%	–	–	–	IC50 (Histone deacetylase 8): 2.53 µM; IC50 [1]: 0.807 µM
Cc1ccccc1-c1cn(CCCCCn2cccc(O)c2=S)nn1	< 20%	–	–	–	IC50 (Jurkat): 5.18 µM; solubility [7]: soluble; IC50 (Histone deacetylase 8): 2.4 µM; IC50 [1]: 0.637 µM; IC50 (LNCaP): 4.95 µM; IC50 (DU-145): 11.1 µM
O=c1c(O)cccn1CCn1cc(-c2ccccc2)nn1	–	inactive	inactive	inactive	–
Cc1cccc(-c2cn(CCCCCn3cccc(O)c3=S)nn2)c1	< 20%	–	–	–	IC50 (Histone deacetylase 8): 1.66 µM; IC50 [1]: 1.1 µM
CN(C)c1ccc(-c2cn(CCCCCn3cccc(O)c3=S)nn2)cc1	< 20%	–	–	–	–
Cc1ccccc1-c1cn(CCCCCn2cccc(O)c2=O)nn1	–	inactive	inactive	inactive	–
